In ChEMBL document CHEMBL3886247, “Aurora and FLT3 kinases modulators” (2015):

Assays:
[1] = target: T1, Receptor-type tyrosine-protein kinase FLT3 (Homo sapiens, UniProt P36888); experiment: Inhibition Assay: Kinase assays were performed at Reaction Biology Corp., Malvern, Pa., USA, using the following general procedure:1) Prepare indicated substrate in freshly prepared Base Reaction Buffer (20 mM Hepes pH 7.5, 10 mM MgCl2, 1 mM EGTA, 0.02% Brij35, 0.02 mg/ml BSA, 0.1 mM Na3VO4, 2 mM DTT, 1% DMSO).2) Deliver cofactors (1.5 mM CaCl2, 16 ug/mL Calmodulin, 2 mM MnCl2) to the substrate …
T1 sequence (P36888 whole entry): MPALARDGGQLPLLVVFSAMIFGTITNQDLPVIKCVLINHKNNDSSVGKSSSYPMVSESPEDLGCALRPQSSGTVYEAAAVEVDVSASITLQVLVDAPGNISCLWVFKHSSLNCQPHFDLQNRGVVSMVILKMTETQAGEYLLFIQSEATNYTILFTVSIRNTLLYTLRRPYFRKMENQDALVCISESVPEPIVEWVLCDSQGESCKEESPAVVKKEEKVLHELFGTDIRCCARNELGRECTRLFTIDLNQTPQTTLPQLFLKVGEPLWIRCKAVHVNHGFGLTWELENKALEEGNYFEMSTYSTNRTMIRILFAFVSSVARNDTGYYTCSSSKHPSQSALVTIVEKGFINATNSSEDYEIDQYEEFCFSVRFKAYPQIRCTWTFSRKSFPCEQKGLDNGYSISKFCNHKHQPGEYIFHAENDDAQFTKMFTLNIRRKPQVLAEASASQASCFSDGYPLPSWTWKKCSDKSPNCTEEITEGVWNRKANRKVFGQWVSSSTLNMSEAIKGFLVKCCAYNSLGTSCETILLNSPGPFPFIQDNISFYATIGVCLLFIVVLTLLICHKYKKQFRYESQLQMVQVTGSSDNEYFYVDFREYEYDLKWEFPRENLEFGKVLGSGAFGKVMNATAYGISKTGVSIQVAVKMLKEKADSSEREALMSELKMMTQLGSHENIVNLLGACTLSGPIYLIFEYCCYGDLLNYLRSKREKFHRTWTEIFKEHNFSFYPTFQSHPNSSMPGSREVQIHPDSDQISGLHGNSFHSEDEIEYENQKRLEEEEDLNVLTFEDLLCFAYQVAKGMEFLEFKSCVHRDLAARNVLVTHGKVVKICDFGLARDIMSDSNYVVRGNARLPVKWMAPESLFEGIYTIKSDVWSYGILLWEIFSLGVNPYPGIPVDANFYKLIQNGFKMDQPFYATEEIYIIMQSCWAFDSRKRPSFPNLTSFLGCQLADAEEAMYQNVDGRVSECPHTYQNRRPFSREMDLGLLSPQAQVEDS

Aurora kinase B = Aurora kinase B (Homo sapiens, UniProt Q96GD4); experiment: Inhibition Assay: Kinase assays were performed at Reaction Biology Corp., Malvern, Pa., USA, using the following general procedure:1) Prepare indicated substrate in freshly prepared Base Reaction Buffer (20 mM Hepes pH 7.5, 10 mM MgCl2, 1 mM EGTA, 0.02% Brij35, 0.02 mg/ml BSA, 0.1 mM Na3VO4, 2 mM DTT, 1% DMSO).2) Deliver cofactors (1.5 mM CaCl2, 16 ug/mL Calmodulin, 2 mM MnCl2) to the substrate solution above.3) Deliver indicated kinase into the substrate solution and gently mix4) Deliver varying concentrations of test compound in DMSO into the kinase reaction mixture.5) Deliver 33P-ATP (specific activity 0.01 uCi/uL final) into the reaction mixture to initiate the reaction.6) Incubate kinase reaction for 120 min at room temperature.7) Reactions are spotted onto P81 ion exchange filter paper (Whatman #3698-915)8) Unbound phosphate is removed by washing filters extensively in 0.75% phosphoric acid.9) 33P signal was determined using Typhoon phosphorimagers (GE Healthcare).
Chain of Aurora kinase B (Q96GD4 whole entry): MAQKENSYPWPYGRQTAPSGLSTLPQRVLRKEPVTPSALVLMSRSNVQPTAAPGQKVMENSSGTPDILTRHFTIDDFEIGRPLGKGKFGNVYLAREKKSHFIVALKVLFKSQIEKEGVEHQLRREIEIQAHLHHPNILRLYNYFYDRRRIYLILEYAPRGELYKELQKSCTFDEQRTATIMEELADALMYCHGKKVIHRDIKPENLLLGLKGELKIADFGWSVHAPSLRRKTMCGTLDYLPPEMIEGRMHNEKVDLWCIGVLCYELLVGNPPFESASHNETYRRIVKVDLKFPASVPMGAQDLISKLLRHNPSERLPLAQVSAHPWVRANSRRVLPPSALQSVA

SMILES: CCc1ccc(-c2nc(C(N)=O)c(-c3ccc(N4CCNC(C)(C)C4)cc3)o2)c2cc[nH]c12
- IC50 [1]: 0.67 nM
- IC50 (Aurora kinase B): 12 nM
